Where two headings read alike, the source gives them in different places.
Legend:
Format in all cases: binding
[1] = target: T1, MD2 (myeloid differentiation protein 2) (Homo sapiens, UniProt Q9Y6Y9); test: quenching of MD2 intrinsic fluorescence
T1 sequence (Q9Y6Y9 19-160): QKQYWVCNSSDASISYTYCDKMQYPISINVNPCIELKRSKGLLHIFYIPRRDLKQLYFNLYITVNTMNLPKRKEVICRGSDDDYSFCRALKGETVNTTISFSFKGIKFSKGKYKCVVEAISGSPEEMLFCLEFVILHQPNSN

[2] = target: T1, MD2 (myeloid differentiation protein 2); test: quenching of MD2 intrinsic fluorescence; remark: listed apart in the source
[3] = target: T1, MD2 (myeloid differentiation protein 2); test: Bis-ANS-MD2 complex fluorescence, displaced by

`C=CCN1CC[C@@]23c4c5ccc(O)c4O[C@@H]2C(=O)CC[C@]3(O)[C@@H]1C5` [(+)-naloxone] was tested, and the Kd [1] was 16.6 ± 4.7 µM.

For `C=CCN1CC[C@]23c4c5ccc(O)c4O[C@H]2C(=O)CC[C@@]3(O)[C@H]1C5` [(−)-naloxone], the Kd [2] was 17.7 ± 3.2 µM.

`O=S(=O)(O)c1cccc2c(-c3ccc(Nc4ccccc4)c4c(S(=O)(=O)O)cccc34)ccc(Nc3ccccc3)c12` [Bis-ANS] was tested, and the “Bis-ANS-MD2 complex fluorescence, displaced by (+)-naloxone” value [3] was “(+)-Naloxone decreased Bis-ANS-MD2 complex fluorescence, suggesting that (+)-naloxone replaces Bis-ANS binding to MD2”.

From article PMC3454463 (2012)
